In patent US20180292390A1 (priority 2015, published 2018):
Like-named read-outs stand apart in the source and are kept apart here.

Tests used:
Muller cell processes = test: GFAP immunostaining of ex vivo retinal culture: Muller cell processes; format: cell-based; conditions: retina untreated, histamine only, LXA4 only, or both, FIG. 15
Procedure: This experiment followed the protocol of Example 1. This example illustrates a new analysis added for drug evaluation in ex vivo retinal culture. […] Statistical significance is determined by two-tailed Student's t test. *, P<0.05; **, P<0.01; ***, P<0.001. Mean±SEM is plotted in the graph.

[1] = tested on: BRB in retinal slice cultures; test: IgG immunostaining of retinal slice cultures: BRB breach; format: cell-based; conditions: for IgG in neurons (indicator of BRB breach): retinal slices treated with histamine with or without lipoxin A4, FIG. 10
Excerpt: Untreated samples served as control. The slices were then processed to generate cryosections for immunostaining. The location of IgG (an indicator of BRB breach) was monitored by immunostaining.

[2] = tested on: BBB (blood vessels) in mouse brain organotypic cultures; conditions: 450 μM histamine; for blood vessel leakage: 1 hour; for percentage of leaky vessels (IgG extravasated out of blood vessels): 2 mm MBO
Procedure: (§1) Primary mouse brain organotypic cultures were prepared as described previously ((Levin et al., Brain Res. 1298, 194-207, 2009). Briefly, the brains were removed from C57BL/6 mice (n=8) and cut to either 1 mm or 2 mm thickness using a tissue chopper. The brain slices were then placed in medium containing 25% inactivated horse serum, 25% Hanks' BSS, 50% DMEM, and 25 mg/l penicillin-streptomycin (Invitrogen, Carlsbad, Calif.) in 6-well culture dishes and maintained for 30 min at room temperature. The brain slices were then moved to either fresh media (control) or fresh media containing 450 μM histamine (Sigma, Saint Louis, Mo., Cat. No. H7125-1G) in 6-well culture dishes for 1 hr at 37° C. in a 5% CO2-enriched atmosphere. The brain slices were fixed with 4% paraformaldehyde (PFA) in PBS at room temperature and processed for immunohistochemistry as described below.
(§2) The mouse brain organotypic brain slices were stored in 4% PFA overnight at 4° C. The brain slices were then infiltrated with 10% sucrose in PBS for 2 hours, followed by 30% sucrose in PBS overnight at 4° C. under constant, gentle agitation. Using a Leica cryostat, 12 μm thick frozen sections were cut, mounted onto Fisher Super Frost Plus slides, and air dried. Immunohistochemistry for the paraffin-embedded tissues was carried out using procedure well known in the art. Briefly, tissues were deparaffinized using xylene and then rehydrated through a graded series of decreasing concentrations of ethanol. Next, protein antigenicity was enhanced by microwaving sections in citrate buffer. The paraffin-embedded tissues were then processed in the same way as the frozen sections described below.
(§3) Immunohistochemistry for the frozen sections was carried out as previously described ((Levin et al., Brain Res. 1298, 194-207, 2009). Briefly, tissues were rehydrated with PBS for 2 min. The endogenous peroxidase was quenched by treating sections with 0.3% H202 for 30 min. First, sections were incubated in blocking serum for 30 min. at room temperature, and then treated with primary antibodies at appropriate dilutions for 1 hr at room temperature. Next, sections were thoroughly rinsed with PBS, and sections were incubated with biotin-labeled secondary antibody for 30 min. at room temperature. Sections were then treated with the avidin-peroxidase-labeled biotin complex (ABC, Vector Labs, Foster City, Calif.) and visualized by treating with either 3-3-diaminobenzidine-4-HCL (DAB)/H2O2 (Biomeda, Foster City, Calif.) or NovaRed (Vector Labs, Foster City, Calif., Cat. No. SK-4800). Sections were then lightly counterstained with hematoxylin, dehydrated through increasing concentrations of ethanol, cleared in xylene and mounted in Permount. Specimens were examined and photographed with a Nikon FXA microscope, and digital images were recorded using a Nikon DXM1200F digital camera and processed using Image Pro Plus (Phase 3 Imaging, Glen Mills, Pa.) image software.
(§4) Leaky and non-leaky vessels, GFAP-positive and -negative astrocytes, and vimentin-positive and -negative neurons were counted in sections of primary mouse brain organotypic culture slices. Images were optimized and counting was performed using the counting feature of Adobe Photoshop CS3. Three sections were examined per treatment group, with at least ten viewing fields counted from each section, for a total of 30 viewing fields per treatment group. Only blood vessels with endothelial cell nuclei, astrocytes with their nuclei, and neurons with their nuclei within the plane of section were included in the count. […] The percentage of total leaky vessels, GFAP-positive astrocytes, and vimentin-positive neurons for histamine treated and control slices were determined.
(§5) Immunohistochemistry (IHC) was used to evaluate the effects of histamine on BBB permeability and the response of cells within the surrounding brain parenchyma.

[3] = tested on: neurons in mouse brain organotypic cultures; conditions: 450 μM histamine; for vimentin-positive neurons: 2 mm MBO
Procedure: as §1, §2, §3, §4, §5

[4] = tested on: astrocytes in mouse brain organotypic cultures; conditions: 450 μM histamine; for GFAP-positive astrocytes (GFAP expression): 1 hr, 2 mm MBO
Procedure: as §1, §2, §3, §4, §5

[5] = tested on: GFAP expression in retinal slices; conditions: retinal slices treated with histamine 0, 30, 60 or 90 min, FIG. 8
Excerpt: (§6) The slices were then processed to generate cryosections for immunostaining.

[6] = tested on: MAP2 expression in retinal slices; conditions: retinal slices treated with histamine 0, 30, 60 or 90 min, FIG. 9
Excerpt: as §6

BBB, mouse brain = test: IgG immunostaining of brain cortex of PT-treated mice: BBB compromise; format: in vivo
Excerpt: This experiment followed the protocol of Example 1. This experiment involved S100B knockout (KO) mice, focusing on age-dependent increase of blood-brain barrier permeability and neuron-binding autoantibodies in SB100KO mice. […] Overlay of IgG immunostaining (red) with DAPI (blue) is presented from cortical region of the brain. (FIG. 18A) In untreated wild type (WT) brains, IgG-positive staining was confined to the microvasculature, indicating intact blood vessels (arrows). […] (FIG. 18C). In the S100BKO mouse brain (KO), even without PT treatment, IgG-positive leaks (marked by white dotted circle) were observed. (FIG. 18D).

retinal neurons = test: SV2 and MAP2 immunostaining of retina of pertussis toxin treated mice; format: in vivo; conditions: pertussis toxin treated wild type mice

**Q.** What does the source list for `CCCCC[C@H](O)/C=C/C=C\C=C\C=C\[C@@H](O)[C@@H](O)CCCC(=O)O` [LXA4, lipoxin A4]?
**A.** Muller cell processes (GFAP staining, width) (Muller cell processes): Rescued; IgG in neurons (indicator of BRB breach) [1]: conferred protection from these effects

**Q.** Which results are given for `NCCc1c[nH]cn1` [histamine]?
**A.** Muller cell processes (GFAP staining, width) (Muller cell processes): Compromised; blood vessel leakage ([2]; 1 mm MBOs): 30.9%; blood vessel leakage ([2]; 2 mm MBOs): 24.4%; percentage of leaky vessels (IgG extravasated out of blood vessels) ([2]; 1 hr, distal portion (700-1050 μm)): 32.4%; percentage of leaky vessels (IgG extravasated out of blood vessels) ([2]; 1 hr, middle portion (350-700 μm)): 24.7%; percentage of leaky vessels (IgG extravasated out of blood vessels) ([2]; 1 hr, proximal portion (0-350 μm)): 19.9%; perivascular leakage, histamine treated compared to controls, overall ([2]; 1 hr, MBO, FIG. 5A): more than two-fold; neuronal damage-responses ([3]; 1 hour, 1 mm MBOs): 51.8%; vimentin expression by neurons ([3]; 1 hour, 2 mm MBOs): 46.5%; vimentin-positive neurons ([3]; 1 hr, distal portion): 47.5%; vimentin-positive neurons ([3]; 1 hr, middle portion): 45.1%; vimentin-positive neurons ([3]; 1 hr, proximal portion): 47%; increase in neurons expressing vimentin compared to control sections ([3]; 1 hr, MBO, FIG. 5C): greater than four-fold; astrocyte activation ([4]; 1 hour, 1 mm MBOs): 47.7%; GFAP expression by astrocytes ([4]; 1 hour, 2 mm MBOs): 45.7%; GFAP-positive astrocytes (GFAP expression) ([4]; distal portion): 48.4%; GFAP-positive astrocytes (GFAP expression) ([4]; middle portion): 45.1%; GFAP-positive astrocytes (GFAP expression) ([4]; proximal portion): 43.6%; GFAP expression [5]: elevation in GFAP expression; MAP2 expression [6]: decrease in MAP2 expression; BRB integrity, location of IgG ([1]; retinal slices after histamine treatment, FIG. 7): BRB breakdown and extravasated IgG surrounding blood vessels; IgG in neurons (indicator of BRB breach) [1]: neurons were loaded with IgG

**Q.** Which “IgG binding to neurons in brain cortex” value (BBB, mouse brain; S100BKO mice treated with PT, FIG. 18D) does the source give for Pertussis toxin [PT] here?
**A.** intensely bound by IgG

**Q.** What about the “IgG-positive staining in brain cortex” value (BBB, mouse brain; wild type (WT) mice with PT treatment, FIG. 18B) of the same molecule?
**A.** IgG-positive microvascular leaks

**Q.** And the “retinal neuronal damage by SV2 and MAP2 immunostaining” value (retinal neurons)?
**A.** displays retinal neuronal damages
